For one experiment, the target named is T1, hDHFR (Homo sapiens, UniProt P00374).
T1 sequence (P00374 1-187): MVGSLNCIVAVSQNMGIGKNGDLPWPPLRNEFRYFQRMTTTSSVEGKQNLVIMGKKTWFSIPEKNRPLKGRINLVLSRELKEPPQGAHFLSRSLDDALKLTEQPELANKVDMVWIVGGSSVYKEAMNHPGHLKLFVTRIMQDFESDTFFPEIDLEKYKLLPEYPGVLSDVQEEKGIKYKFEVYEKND
Type of experiment: biochemical.

For the next experiment, the target named is T2, T. gondii DHFR (tgDHFR) (Toxoplasma gondii, UniProt Q07422).
T2 sequence (Q07422 1-610): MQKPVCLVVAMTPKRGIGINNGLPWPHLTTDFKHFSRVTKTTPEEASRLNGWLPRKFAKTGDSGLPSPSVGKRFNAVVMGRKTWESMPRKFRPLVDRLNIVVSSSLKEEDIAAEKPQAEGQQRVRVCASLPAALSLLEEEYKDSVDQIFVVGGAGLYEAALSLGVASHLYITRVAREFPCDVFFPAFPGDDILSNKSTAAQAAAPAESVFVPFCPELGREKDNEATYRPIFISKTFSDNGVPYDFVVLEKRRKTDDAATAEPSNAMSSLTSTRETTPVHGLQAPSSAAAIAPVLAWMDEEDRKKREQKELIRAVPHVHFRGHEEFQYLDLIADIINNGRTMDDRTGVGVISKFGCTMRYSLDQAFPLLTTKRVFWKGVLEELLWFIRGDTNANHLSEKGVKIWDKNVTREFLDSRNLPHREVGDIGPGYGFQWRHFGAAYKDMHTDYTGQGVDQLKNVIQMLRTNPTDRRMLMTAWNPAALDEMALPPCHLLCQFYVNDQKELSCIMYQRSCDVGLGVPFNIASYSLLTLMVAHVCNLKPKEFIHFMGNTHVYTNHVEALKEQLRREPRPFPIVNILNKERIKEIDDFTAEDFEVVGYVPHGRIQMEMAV
Put plainly: biochemical. The note with it: for Average DHFR selectivity (h/tg): hDHFR IC50/tgDHFR IC50.

[1] abbreviates: Table 16, pIC50 = -log10 IC50, at least three replicates, read-out: hDHFR pIC50-DHFR primary assay (converted).
Where [2] appears, read: Table 16, pIC50 = -log10 IC50, at least three replicates, read-out: tgDHFR pIC50-DHFR primary assay (converted).
Setting [3] is: Table 18, pIC50 = -log10 IC50, at least three replicates, read-out: hDHFR pIC50-DHFR primary assay (converted).

SMILES strings stand for the structures. Like-named read-outs stand apart in the source and are kept apart here.

For `COc1ncc(-c2cc(N3CCN(c4cnc(N)nc4N)CC3)ccn2)cn1` [Compound 163], the IC50 was 155 nM on hDHFR (setting [1]) and 6.76 nM at T. gondii DHFR (tgDHFR) (setting [2]). The “Average DHFR selectivity (h/tg)” value on T. gondii DHFR (tgDHFR) (Table 16) worked out at 23.00.
With `Nc1ncc(N2CCN(c3cccc(-c4cnc(O)nc4)n3)CC2)c(N)n1` [Compound 181, 5-(6-(4-(2,4-diaminopyrimidin-5-yl)piperazin-1-yl)pyridin-2-yl)pyrimidin-2-ol], the IC50 was 16.6 nM on hDHFR (setting [1]) and 1.2 nM at T. gondii DHFR (tgDHFR) (setting [2]). Further, at T. gondii DHFR (tgDHFR) (Table 16), the “Average DHFR selectivity (h/tg)” value was determined as 13.94.
As for `CCCc1nc(N)nc(N)c1N1CCN(c2ncc(C)cn2)CC1` [Compound 59, 5-(4-(5-methylpyrimidin-2-yl)piperazin-1-yl)-6-propylpyrimidine-2,4-diamine], the IC50 on hDHFR (setting [1]) is 8130 nM; against T. gondii DHFR (tgDHFR), 70.8 nM.
In the case of `COc1ncc(-c2ccnc(N3CCN(c4cnc(N)nc4N)CC3)c2)cn1` [Compound 165], the IC50 at hDHFR (setting [1]) is 355 nM; at T. gondii DHFR (tgDHFR) (setting [2]), 4.37 nM. Moreover, at T. gondii DHFR (tgDHFR) (Table 16), the “Average DHFR selectivity (h/tg)” value was determined as 82.03.
For the compound `Nc1ncc(N2CCN(c3cccc(-c4cnc(C5CC5)nc4)c3)CC2)c(N)n1` [Compound 86], on hDHFR (setting [3]), the IC50 was 832 nM.
For `Cc1ncc(-c2cccc(C3CCN(c4cnc(N)nc4N)CC3)c2)cn1` [Compound 113, 5-(4-(3-(2-methylpyrimidin-5-yl)phenyl)piperidin-1-yl)pyrimidine-2,4-diamine], the IC50 on hDHFR (setting [1]) was 372 nM; against T. gondii DHFR (tgDHFR), 6.17 nM.
Consider `Cc1nc(N)nc(N)c1N1CCN(c2cccc(Cl)c2)CC1` [Compound 46, 5-(4-(3-chlorophenyl)piperazin-1-yl)-6-methylpyrimidine-2,4-diamine], for which the values for the IC50 at hDHFR and against T. gondii DHFR (tgDHFR) were 240 nM and 8.13 nM, respectively. Moreover, on T. gondii DHFR (tgDHFR) (Table 16), the “Average DHFR selectivity (h/tg)” value stood at 29.68.
On to `CCc1nc(N)nc(N)c1N1CCN(c2ccccn2)CC1` [Compound 34, 6-ethyl-5-(4-(pyridin-2-yl)piperazin-1-yl)pyrimidine-2,4-diamine], for which the figures for the IC50 at hDHFR (setting [1]) and at T. gondii DHFR (tgDHFR) were 1020 nM and 6.46 nM, respectively.
The like results for `Cc1nc(N)nc(N)c1N1CCN(c2ccccc2)CC1` [Compound 47, 6-methyl-5-(4-phenylpiperazin-1-yl)pyrimidine-2,4-diamine] were, in that order, 2240 nM and 26.3 nM.
The like results for `CCc1nc(N)nc(N)c1N1CCN(c2ccc(C)cc2)CC1` [Compound 39, 6-ethyl-5-(4-(p-tolyl)piperazin-1-yl)pyrimidine-2,4-diamine] were, in that order, 1740 nM and 12.3 nM.
Turning to `CC1CN(c2cnc(N)nc2N)CCN1c1cccc(-c2ccccc2)c1` (centres unmarked) [Compound 26, 5-(4-([1,1′-biphenyl]-3-yl)-3-methylpiperazin-1-yl)pyrimidine-2,4-diamine], the IC50 on hDHFR (setting [1]) was 30.2 nM; on T. gondii DHFR (tgDHFR), 2 nM.
As to `COc1ncc(-c2cncc(N3CCN(c4cnc(N)nc4N)CC3)c2)cn1` [Compound 162], the IC50 at hDHFR (setting [1]) was 1450 nM; on T. gondii DHFR (tgDHFR) (setting [2]), 12.3 nM. Besides, the “Average DHFR selectivity (h/tg)” value at T. gondii DHFR (tgDHFR) (Table 16) stood at 117.08.
As for `CNc1ncc(-c2cccc(N3CCN(c4cnc(N)nc4N)CC3)c2)cn1` [Compound 97], the IC50 on hDHFR (setting [1]) is 741 nM; against T. gondii DHFR (tgDHFR), 5.62 nM.
The corresponding values for `CCCc1nc(N)nc(N)c1N1CCN(c2ccc(F)cc2)CC1` [Compound 52, 5-(4-(4-fluorophenyl)piperazin-1-yl)-6-propylpyrimidine-2,4-diamine] are 10000 nM and 33.1 nM.
For `COc1ncc(-c2cc(N3CCN(c4cnc(N)nc4N)CC3)ccc2F)cn1` [Compound 160], the IC50 at hDHFR (setting [1]) was 389 nM; at T. gondii DHFR (tgDHFR) (setting [2]), 2.51 nM. In addition, the “Average DHFR selectivity (h/tg)” value at T. gondii DHFR (tgDHFR) (Table 16) is on record as 156.11.
Turning to `CCCc1nc(N)nc(N)c1N1CCN(c2ccccn2)CC1` [Compound 56, 6-propyl-5-(4-(pyridin-2-yl)piperazin-1-yl)pyrimidine-2,4-diamine], the results for the IC50 at hDHFR (setting [1]) and against T. gondii DHFR (tgDHFR) were 6760 nM and 25.7 nM, respectively.
`COc1ncc(-c2cccc(N3CCN(c4cnc(N)nc4N)CC3)n2)cn1` [Compound 158]: the values for the IC50 at hDHFR (setting [1]) and on T. gondii DHFR (tgDHFR) (setting [2]) were 18.2 nM and 1.02 nM, respectively. Also, the “Average DHFR selectivity (h/tg)” value at T. gondii DHFR (tgDHFR) (Table 16) is on record as 17.78.
Turning to `COc1ncccc1-c1cccc(N2CCN(c3cnc(N)nc3N)CC2)c1` [Compound 80], the IC50 on hDHFR (setting [1]) is 1020 nM; at T. gondii DHFR (tgDHFR), 6.17 nM.
Take `C[C@H]1CN(c2cnc(N)nc2N)CCN1c1cccc(C2CCOCC2)c1` [Compound 174]: the IC50 at hDHFR (setting [1]) is 955 nM; on T. gondii DHFR (tgDHFR) (setting [2]) it was 31.6 nM. Also, at T. gondii DHFR (tgDHFR) (Table 16), the “Average DHFR selectivity (h/tg)” value was 30.69.
With `COc1ncc(-c2cccc(N3CC=C(c4cnc(N)nc4N)CC3)c2)cn1` [Compound 182, 5-(1-(3-(2-methoxypyrimidin-5-yl)phenyl)-1,2,3,6-tetrahydropyridin-4-yl)pyrimidine-2,4-diamine], the IC50 on hDHFR (setting [1]) is 77.6 nM; at T. gondii DHFR (tgDHFR) (setting [2]), 2.04 nM. Further, the “Average DHFR selectivity (h/tg)” value at T. gondii DHFR (tgDHFR) (Table 16) is 37.84.
Turning to `Nc1ncc(N2CCN(c3cccc(C4CCOCC4)c3)CC2)c(N)n1` [Compound 110, 5-(4-(3-(tetrahydro-2H-pyran-4-yl)phenyl)piperazin-1-yl)pyrimidine-2,4-diamine], the IC50 at hDHFR (setting [1]) was 6170 nM; on hDHFR (Table 20, pIC50 = -log10 IC50, at least three replicates, read-out: hDHFR pIC50-DHFR primary assay (converted)), 7760 nM; on T. gondii DHFR (tgDHFR), 34.7 nM.
With `CCCc1nc(N)nc(N)c1N1CCN(c2ccc(OC)cn2)CC1` [Compound 60, 5-(4-(5-methoxypyridin-2-yl)piperazin-1-yl)-6-propylpyrimidine-2,4-diamine], the values for the IC50 at hDHFR (setting [1]) and on T. gondii DHFR (tgDHFR) were 2880 nM and 20 nM, respectively.
`Cc1ncc(-c2cccc(N3CCN(c4cnc(N)nc4N)CC3)c2)cn1` [Compound 69, 5-(4-(3-(2-methylpyrimidin-5-yl)phenyl)piperazin-1-yl)pyrimidine-2,4-diamine]: the IC50 at T. gondii DHFR (tgDHFR) is 4.47 nM.
In the case of `COc1ncc(-c2cc(F)cc(N3CCN(c4cnc(N)nc4N)CC3)c2)cn1` [Compound 161], the IC50 is 138 nM on hDHFR (setting [1]) and 2.69 nM at T. gondii DHFR (tgDHFR) (setting [2]). Also, the “Average DHFR selectivity (h/tg)” value on T. gondii DHFR (tgDHFR) (Table 16) stood at 51.27.
Turning to `Nc1ncc(N2CCN(c3cccc(N4CCOCC4)c3)CC2)c(N)n1` [Compound 25, 5-(4-(3-morpholinophenyl)piperazin-1-yl)pyrimidine-2,4-diamine], the IC50 at hDHFR (setting [1]) is 14100 nM; against T. gondii DHFR (tgDHFR) it was 138 nM.
With `COc1ncc(-c2cccc(N3CCN(c4cnc(N)nc4N)CC3)c2F)cn1` [Compound 159], the IC50 on hDHFR (setting [1]) is 2340 nM; on T. gondii DHFR (tgDHFR) (setting [2]) it was 30.2 nM. The “Average DHFR selectivity (h/tg)” value on T. gondii DHFR (tgDHFR) (Table 16) stood at 80.32.
Turning to `CCc1nc(N)nc(N)c1N1CCN(c2ccc(F)cn2)CC1` [Compound 44, 6-ethyl-5-(4-(5-fluoropyridin-2-yl)piperazin-1-yl)pyrimidine-2,4-diamine], the IC50 is 295 nM on hDHFR (setting [1]) and 4.17 nM on T. gondii DHFR (tgDHFR).
For `C[C@@H]1CN(c2cnc(N)nc2N)CCN1c1cccc(C2=CCOCC2)c1` [Compound 194, (R)-5-(4-(3-(3,6-dihydro-2H-pyran-4-yl)phenyl)-3-methylpiperazin-1-yl)pyrimidine-2,4-diamine], the IC50 on hDHFR (setting [1]) is 33.1 nM; at T. gondii DHFR (tgDHFR) (setting [2]), 1.82 nM. The “Average DHFR selectivity (h/tg)” value at T. gondii DHFR (tgDHFR) (Table 16) worked out at 18.10.
The like results for `C[C@H]1CN(c2cnc(N)nc2N)CCN1c1cccc(C2=CCOCC2)c1` [Compound 192, (S)-5-(4-(3-(3,6-dihydro-2H-pyran-4-yl)phenyI)-3-methylpiperazin-1-yl)pyrimidine-2,4-diamine] were, in that order, 479 nM, 27.5 nM and 17.89.
With `Nc1ncc(N2CCN(c3cccc(-c4cnc(Cl)nc4)c3)CC2)c(N)n1` [Compound 100], the IC50 at hDHFR (setting [1]) was 1320 nM; at hDHFR (setting [3]), 1320 nM; at T. gondii DHFR (tgDHFR), 6.76 nM.
For `Nc1ncc(N2CCN(c3cccc(-c4cncnc4)c3)CC2)c(N)n1` [Compound 74], the IC50 at hDHFR (setting [3]) was 3090 nM.
As for `COc1ncc(-c2ccc(F)c(N3CCN(c4cnc(N)nc4N)CC3)c2)cn1` [Compound 164], the IC50 was 562 nM on hDHFR (setting [1]) and 8.71 nM on T. gondii DHFR (tgDHFR) (setting [2]). For the same compound, on T. gondii DHFR (tgDHFR) (Table 16), the “Average DHFR selectivity (h/tg)” value turned out to be 65.26.
Regarding `Nc1ncc(N2CCN(c3cccc(-c4cccc(F)c4)c3)CC2)c(N)n1` [Compound 64], the IC50 at hDHFR (setting [1]) is 1070 nM; against T. gondii DHFR (tgDHFR) it was 11.5 nM.
As for `CCc1nc(N)nc(N)c1N1CCN(c2ccc(F)cc2)CC1` [Compound 35, 6-ethyl-5-(4-(4-fluorophenyl)piperazin-1-yl)pyrimidine-2,4-diamine], the IC50 at T. gondii DHFR (tgDHFR) was 6.92 nM.
